Measured values reported in ChEMBL document CHEMBL1138794, “Influence of the linker in bispyridium compounds on the inhibition of human choline kinase” (J Med Chem, 2004).

Key:
HT-29 = test: Antiproliferative activity was determined using HT-29 human colon cancer cell line; type: functional, cell-based
Choline kinase alpha = Choline kinase alpha (Homo sapiens, UniProt P35790); test: Inhibitory activity against human choline kinase enzyme
Chain of Choline kinase alpha (P35790 whole entry): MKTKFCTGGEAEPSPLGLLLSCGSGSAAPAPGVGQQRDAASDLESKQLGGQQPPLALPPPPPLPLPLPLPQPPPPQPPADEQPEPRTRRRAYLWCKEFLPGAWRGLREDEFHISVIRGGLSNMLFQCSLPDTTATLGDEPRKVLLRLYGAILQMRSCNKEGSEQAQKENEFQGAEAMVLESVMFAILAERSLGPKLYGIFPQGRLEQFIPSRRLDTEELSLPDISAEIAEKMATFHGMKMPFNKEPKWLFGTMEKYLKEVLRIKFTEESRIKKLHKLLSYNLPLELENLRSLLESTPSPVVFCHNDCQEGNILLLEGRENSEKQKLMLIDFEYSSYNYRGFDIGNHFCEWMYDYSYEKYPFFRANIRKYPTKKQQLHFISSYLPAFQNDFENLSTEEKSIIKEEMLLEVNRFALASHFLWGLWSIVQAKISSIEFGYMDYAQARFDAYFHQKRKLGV

| SMILES | IC50 (HT-29) | IC50 (Choline kinase alpha) |
| --- | --- | --- |
| c1c[n+](C[C@H]2C[C@@H]2C[n+]2ccc(N3CCCC3)cc2)ccc1N1CCCC1 | > 100 µM | > 100 µM |
| CN(c1ccc(Cl)cc1)c1cc[n+](C[C@H]2C[C@@H]2C[n+]2ccc(N(C)c3ccc(Cl)cc3)cc2)cc1 | 24.3 µM | 48.2 µM |
| c1cc(-c2ccc(C[n+]3ccc(N4CCCCC4)cc3)cc2)ccc1C[n+]1ccc(N2CCCCC2)cc1 | 4.2 µM | 8.8 µM |
| c1cc(C[n+]2ccc(N3CCCCC3)cc2)cc(C[n+]2ccc(N3CCCCC3)cc2)c1 | 43 µM | 52.8 µM |
| c1cc(C[n+]2ccc(N3CCCCC3)cc2)cc(-c2cccc(C[n+]3ccc(N4CCCCC4)cc3)c2)c1 | 1.6 µM |  |
| c1cc(C[n+]2ccc(N3CCCCC3)cc2)ccc1C[n+]1ccc(N2CCCCC2)cc1 | > 100 µM | 37.7 µM |
| c1cc(C[n+]2ccc(N3CCCC3)cc2)cc(C[n+]2ccc(N3CCCC3)cc2)c1 | 50 µM | 84.2 µM |
| CN(c1ccc(Cl)cc1)c1cc[n+](Cc2cccc(C[n+]3ccc(N(C)c4ccc(Cl)cc4)cc3)c2)cc1 | 3.3 µM | 7.2 µM |
| CN(c1ccccc1)c1cc[n+](Cc2ccc(C[n+]3ccc(N(C)c4ccccc4)cc3)cc2)cc1 | 6.81 µM | 15 µM |
| CN(c1ccc(Cl)cc1)c1cc[n+](Cc2ccc(C[n+]3ccc(N(C)c4ccc(Cl)cc4)cc3)cc2)cc1 | 3.5 µM | 2.9 µM |
| CN(c1ccccc1)c1cc[n+](Cc2ccc(-c3ccc(C[n+]4ccc(N(C)c5ccccc5)cc4)cc3)cc2)cc1 | 2 µM | 4.3 µM |
| CN(c1ccccc1)c1cc[n+](Cc2cccc(-c3cccc(C[n+]4ccc(N(C)c5ccccc5)cc4)c3)c2)cc1 | 2.2 µM | 0.4 µM |
| CN(c1ccccc1)c1cc[n+](C[C@H]2C[C@@H]2C[n+]2ccc(N(C)c3ccccc3)cc2)cc1 | > 100 µM | > 100 µM |
| c1c[n+](C[C@H]2C[C@@H]2C[n+]2ccc(N3CCCCC3)cc2)ccc1N1CCCCC1 | 99 µM | 98 µM |
| c1cc(C[n+]2ccc(N3CCCC3)cc2)ccc1C[n+]1ccc(N2CCCC2)cc1 | > 100 µM | 24 µM |

The remaining compounds from weak to strong by IC50 (HT-29), led by results:

| IC50 (HT-29) | IC50 (Choline kinase alpha) | SMILES |
| --- | --- | --- |
| 7.5 µM | > 100 µM | CN(c1cc[n+](C[C@H]2C[C@@H]2C[n+]2ccc(N(C)c3cc(Cl)cc(Cl)c3)cc2)cc1)c1cc(Cl)cc(Cl)c1 |
| 6.1 µM | 11.1 µM | c1cc(-c2ccc(C[n+]3ccc(N4CCCC4)cc3)cc2)ccc1C[n+]1ccc(N2CCCC2)cc1 |
| 5.1 µM | 37.5 µM | CN(c1ccccc1)c1cc[n+](Cc2cccc(C[n+]3ccc(N(C)c4ccccc4)cc3)c2)cc1 |
| 4 µM | 8.4 µM | CN(c1cc[n+](Cc2cccc(C[n+]3ccc(N(C)c4cc(Cl)cc(Cl)c4)cc3)c2)cc1)c1cc(Cl)cc(Cl)c1 |
| 2.9 µM | 9.7 µM | CN(c1cc[n+](Cc2ccc(C[n+]3ccc(N(C)c4cc(Cl)cc(Cl)c4)cc3)cc2)cc1)c1cc(Cl)cc(Cl)c1 |
| 1.8 µM | 2.6 µM | CN(c1cc[n+](Cc2cccc(-c3cccc(C[n+]4ccc(N(C)c5cc(Cl)cc(Cl)c5)cc4)c3)c2)cc1)c1cc(Cl)cc(Cl)c1 |
| 0.49 µM | 1.8 µM | CN(c1ccc(Cl)cc1)c1cc[n+](Cc2ccc(-c3ccc(C[n+]4ccc(N(C)c5ccc(Cl)cc5)cc4)cc3)cc2)cc1 |
